In general, MIC refers to the least concentration at which growth counts as inhibited. Higher therefore signals a less susceptible organism.

This experiment has as its system Burkholderia pseudomallei. The experiment in a line: Antimicrobial activity against Burkholderia pseudomallei Bp227 harboring deleted (bpeAB-oprA)::FRT gene after 24 hrs by broth microdilution method. The class given is functional. (In general: In broth dilution the organism is exposed to a series of concentrations in liquid medium.)

GENTAMICIN: inhibition of growth (MIC) required 256 µg/mL.
